Source: ChEMBL document CHEMBL4334551, “Discovery of a New Sulfonamide Hepatitis B Capsid Assembly Modulator” (ACS Med Chem Lett, 2020)

Assays:
Hepatitis B virus [1] = experiment: Antiviral activity in HBV infected in human HepAD38 cells assessed as reduction in viral replication incubated for 65 hrs by RT-PCR analysis; format: functional, organism-based; settings: HePAD38, 65 h
[2] = Cytotoxicity against human HepAD38 cells assessed as reduction in cell viability incubated for 65 hrs by EZ-Cytox cell viability assay; format: cell-based
Hepatitis B virus [3] = experiment: Antiviral activity in HBV infected in human HepG2.2.15 cells assessed as reduction in viral replication incubated for 5 days by qPCR analysis; format: functional, organism-based; settings: HepG2.2.15, 120 h
[4] = Stability in rat liver microsomes assessed as half life at 1 uM incubated for 30 mins by LC/MS/MS analysis; format: ADME, Microsome
[5] = Half life in Sprague-Dawley rat at 5 mg/kg, po measured upto 24 hrs by LC/MS/MS analysis; format: ADME, organism-based; settings: in vivo
[6] = Clearance in Sprague-Dawley rat at 5 mg/kg, iv measured upto 24 hrs by LC/MS/MS analysis; format: ADME, organism-based; settings: in vivo
Cytochrome P450 1A2 = molecular target: T1, Cytochrome P450 1A2 (Homo sapiens, UniProt P05177); experiment: Inhibition of human CYP1A2 using phenacetin as substrate by LC/MS/MS analysis; format: ADME
T1 sequence (P05177 whole entry): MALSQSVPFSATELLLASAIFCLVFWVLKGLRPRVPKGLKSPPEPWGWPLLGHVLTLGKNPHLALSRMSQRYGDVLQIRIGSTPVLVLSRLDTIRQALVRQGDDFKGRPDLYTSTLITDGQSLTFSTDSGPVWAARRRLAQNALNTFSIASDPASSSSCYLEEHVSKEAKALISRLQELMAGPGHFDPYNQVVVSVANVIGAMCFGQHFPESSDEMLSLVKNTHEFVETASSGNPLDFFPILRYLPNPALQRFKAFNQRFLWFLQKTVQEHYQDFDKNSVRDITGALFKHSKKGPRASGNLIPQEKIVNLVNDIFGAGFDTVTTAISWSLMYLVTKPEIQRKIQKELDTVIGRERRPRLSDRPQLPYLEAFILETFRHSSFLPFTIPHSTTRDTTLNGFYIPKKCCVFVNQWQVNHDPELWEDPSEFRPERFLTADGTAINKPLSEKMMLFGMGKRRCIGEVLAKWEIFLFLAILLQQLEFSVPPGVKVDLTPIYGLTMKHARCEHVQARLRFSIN

[7] = AUC in Sprague-Dawley rat at 5 mg/kg, iv measured upto 24 hrs by LC/MS/MS analysis; format: ADME, organism-based; parameters: dose 5 mg/kg, time < 24 hr, route intravenous; settings: in vivo
[8] = Stability in rat plasma assessed as compound remaining at 5 uM incubated for 4 hrs by LC/MS/MS analysis; format: ADME, cell-free; settings: read-out: Stability
[9] = AUClast in Sprague-Dawley rat at 5 mg/kg, po measured upto 24 hrs by LC/MS/MS analysis; format: ADME, organism-based; parameters: dose 5 mg/kg, time < 24 hr, route oral; settings: in vivo
[10] = molecular target: T2, Voltage-gated inwardly rectifying potassium channel KCNH2 (Homo sapiens, UniProt Q12809); experiment: Inhibition of human ERG expressed in human HEK293 cells by patch clamp assay; format: cell-based
T2 sequence (Q12809 whole entry): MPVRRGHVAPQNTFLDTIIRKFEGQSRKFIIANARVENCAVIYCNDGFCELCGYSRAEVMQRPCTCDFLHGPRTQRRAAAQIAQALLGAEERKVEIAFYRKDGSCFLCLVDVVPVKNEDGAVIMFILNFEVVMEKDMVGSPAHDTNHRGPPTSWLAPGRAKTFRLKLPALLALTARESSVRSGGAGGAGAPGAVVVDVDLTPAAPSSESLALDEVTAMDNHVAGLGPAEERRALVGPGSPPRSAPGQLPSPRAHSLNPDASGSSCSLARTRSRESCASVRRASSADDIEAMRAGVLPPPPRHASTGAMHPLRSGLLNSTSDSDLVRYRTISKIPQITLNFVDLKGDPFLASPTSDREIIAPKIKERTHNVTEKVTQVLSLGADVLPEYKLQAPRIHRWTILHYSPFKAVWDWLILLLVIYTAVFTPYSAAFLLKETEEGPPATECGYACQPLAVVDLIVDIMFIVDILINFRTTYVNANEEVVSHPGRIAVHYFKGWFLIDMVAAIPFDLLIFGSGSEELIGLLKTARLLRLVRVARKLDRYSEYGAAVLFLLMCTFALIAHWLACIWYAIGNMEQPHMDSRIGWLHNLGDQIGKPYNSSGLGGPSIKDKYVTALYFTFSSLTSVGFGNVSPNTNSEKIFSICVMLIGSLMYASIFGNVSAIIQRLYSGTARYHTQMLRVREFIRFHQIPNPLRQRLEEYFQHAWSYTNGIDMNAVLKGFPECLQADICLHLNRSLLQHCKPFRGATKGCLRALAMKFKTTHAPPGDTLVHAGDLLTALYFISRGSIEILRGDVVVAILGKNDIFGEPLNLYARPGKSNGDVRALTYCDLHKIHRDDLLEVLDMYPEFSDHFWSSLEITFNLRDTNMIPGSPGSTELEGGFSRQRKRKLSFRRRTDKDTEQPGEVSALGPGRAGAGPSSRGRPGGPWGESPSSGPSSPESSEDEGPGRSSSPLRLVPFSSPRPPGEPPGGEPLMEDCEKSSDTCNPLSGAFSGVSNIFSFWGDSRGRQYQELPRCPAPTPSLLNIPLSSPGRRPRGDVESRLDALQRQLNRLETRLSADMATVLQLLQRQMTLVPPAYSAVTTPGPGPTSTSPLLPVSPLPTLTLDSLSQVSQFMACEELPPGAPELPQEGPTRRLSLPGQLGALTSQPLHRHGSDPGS

[11] = AUClast in Sprague-Dawley rat at 5 mg/kg, iv measured upto 24 hrs by LC/MS/MS analysis; format: ADME, organism-based; parameters: time < 24 hr, dose 5 mg/kg, route intravenous; settings: in vivo
[12] = molecular target: T2, Voltage-gated inwardly rectifying potassium channel KCNH2; experiment: Inhibition of human ERG by competitive fluorescence polarization assay
[13] = Tmax in Sprague-Dawley rat at 5 mg/kg, po measured upto 24 hrs by LC/MS/MS analysis; format: ADME, organism-based; settings: in vivo
Cytochrome P450 3A4 = Cytochrome P450 3A4 (Homo sapiens, UniProt P08684); experiment: Inhibition of human CYP3A4 using […] as substrate by LC/MS/MS analysis; format: ADME
Cytochrome P450 3A4, sequence (P08684 whole entry): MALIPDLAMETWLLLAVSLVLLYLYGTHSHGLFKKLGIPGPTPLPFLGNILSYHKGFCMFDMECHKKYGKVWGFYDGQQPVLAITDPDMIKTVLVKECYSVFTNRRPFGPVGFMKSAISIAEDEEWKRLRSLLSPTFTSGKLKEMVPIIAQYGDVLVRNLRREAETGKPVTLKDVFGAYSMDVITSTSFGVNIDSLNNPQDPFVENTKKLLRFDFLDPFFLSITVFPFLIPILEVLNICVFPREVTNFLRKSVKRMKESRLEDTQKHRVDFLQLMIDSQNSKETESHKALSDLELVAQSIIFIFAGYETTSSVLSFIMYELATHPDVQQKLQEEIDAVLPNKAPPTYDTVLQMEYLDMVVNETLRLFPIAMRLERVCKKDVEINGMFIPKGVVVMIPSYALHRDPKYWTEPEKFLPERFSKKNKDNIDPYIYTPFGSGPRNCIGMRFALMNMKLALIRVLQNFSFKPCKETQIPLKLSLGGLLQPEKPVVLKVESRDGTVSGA

[14] = Protein binding in human plasma assessed as compound remaining at 5 uM incubated for 4 hrs by LC/MS/MS analysis; format: ADME, cell-free; settings: read-out: PPB (converted)
Cytochrome P450 2C9 = Cytochrome P450 2C9 (Homo sapiens, UniProt P11712); experiment: Inhibition of human CYP2C9 using tolubutamide as substrate by LC/MS/MS analysis; format: ADME
Cytochrome P450 2C9, sequence (P11712 whole entry): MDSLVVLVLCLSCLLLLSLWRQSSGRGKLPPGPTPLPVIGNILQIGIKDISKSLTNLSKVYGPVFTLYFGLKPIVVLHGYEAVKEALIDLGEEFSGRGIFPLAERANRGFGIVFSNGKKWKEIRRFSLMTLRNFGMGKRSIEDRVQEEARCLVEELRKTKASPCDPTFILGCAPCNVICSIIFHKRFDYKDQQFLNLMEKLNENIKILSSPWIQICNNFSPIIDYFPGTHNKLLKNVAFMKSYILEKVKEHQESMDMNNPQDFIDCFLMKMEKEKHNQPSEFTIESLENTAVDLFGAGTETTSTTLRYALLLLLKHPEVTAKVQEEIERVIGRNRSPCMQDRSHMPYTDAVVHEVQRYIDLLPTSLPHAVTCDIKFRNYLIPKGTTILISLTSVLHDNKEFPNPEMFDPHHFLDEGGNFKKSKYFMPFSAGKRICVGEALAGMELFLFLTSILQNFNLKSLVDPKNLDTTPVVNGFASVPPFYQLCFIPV

[15] = Stability in human plasma assessed as compound remaining at 5 uM incubated for 4 hrs by LC/MS/MS analysis; format: ADME, cell-free; settings: read-out: Stability
[16] = Half life in Sprague-Dawley rat at 5 mg/kg, iv measured upto 24 hrs by LC/MS/MS analysis; format: ADME, organism-based; settings: in vivo
[17] = Oral bioavailability in Sprague-Dawley rat at 5 mg/kg measured upto 24 hrs by LC/MS/MS analysis; format: ADME, organism-based; settings: in vivo
[18] = Protein binding in rat plasma assessed as compound remaining at 5 uM incubated for 4 hrs by LC/MS/MS analysis; format: ADME, cell-free; settings: read-out: PPB
[19] = Cmax in Sprague-Dawley rat at 5 mg/kg, po measured upto 24 hrs by LC/MS/MS analysis; format: ADME, organism-based; parameters: dose 5 mg/kg, route oral; settings: in vivo
Cytochrome P450 2D6 = Cytochrome P450 2D6 (Homo sapiens, UniProt P10635); experiment: Inhibition of human CYP2D6 using dextromethorphan as substrate by LC/MS/MS analysis; format: ADME
Cytochrome P450 2D6, sequence (P10635 whole entry): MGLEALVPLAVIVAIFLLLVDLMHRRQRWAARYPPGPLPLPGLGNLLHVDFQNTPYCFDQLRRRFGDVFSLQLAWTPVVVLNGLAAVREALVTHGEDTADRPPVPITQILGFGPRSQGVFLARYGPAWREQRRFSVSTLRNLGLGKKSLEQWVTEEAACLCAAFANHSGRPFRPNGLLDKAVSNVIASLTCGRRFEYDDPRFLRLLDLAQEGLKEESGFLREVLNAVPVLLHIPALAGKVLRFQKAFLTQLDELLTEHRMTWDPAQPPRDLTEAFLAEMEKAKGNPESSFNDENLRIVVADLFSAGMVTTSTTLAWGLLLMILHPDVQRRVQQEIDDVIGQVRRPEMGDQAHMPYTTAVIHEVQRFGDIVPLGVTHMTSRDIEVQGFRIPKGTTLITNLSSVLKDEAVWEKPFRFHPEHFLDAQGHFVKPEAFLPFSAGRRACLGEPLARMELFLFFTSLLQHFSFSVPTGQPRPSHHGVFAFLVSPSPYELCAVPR

Cytochrome P450 2C19 = Cytochrome P450 2C19 (Homo sapiens, UniProt P33261); experiment: Inhibition of human CYP2C19 using S-mephenytoin as substrate by LC/MS/MS analysis; format: ADME
Cytochrome P450 2C19, sequence (P33261 whole entry): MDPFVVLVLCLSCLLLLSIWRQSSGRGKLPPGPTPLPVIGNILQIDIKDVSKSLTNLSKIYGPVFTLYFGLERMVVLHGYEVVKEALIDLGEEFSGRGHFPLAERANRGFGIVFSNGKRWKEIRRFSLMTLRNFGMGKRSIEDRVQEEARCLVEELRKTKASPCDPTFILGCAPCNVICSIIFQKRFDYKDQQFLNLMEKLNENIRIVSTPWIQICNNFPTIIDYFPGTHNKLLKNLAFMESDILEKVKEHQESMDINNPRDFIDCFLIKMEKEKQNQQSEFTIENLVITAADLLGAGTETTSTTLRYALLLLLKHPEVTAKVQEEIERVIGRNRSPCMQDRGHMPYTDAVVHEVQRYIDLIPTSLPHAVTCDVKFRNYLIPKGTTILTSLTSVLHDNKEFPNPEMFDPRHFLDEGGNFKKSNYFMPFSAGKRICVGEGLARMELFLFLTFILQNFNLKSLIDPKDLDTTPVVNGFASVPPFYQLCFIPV

Hepatitis B virus [20] = experiment: Potency index, ratio of EC50 of NVR3-778 to EC50 of compound for antiviral activity in HBV infected in human HepAD38 cells assessed as reduction in viral replication incubated for 65 hrs by RT-PCR analysis; format: functional
[21] = Stability in human liver microsomes assessed as compound remaining at 1 uM incubated for 30 mins by LC/MS/MS analysis; format: ADME, Microsome; settings: read-out: Stability
[22] = Volume of distribution at steady state in Sprague-Dawley rat at 5 mg/kg, iv measured upto 24 hrs by LC/MS/MS analysis; format: ADME, organism-based; settings: in vivo, read-out: Vdss
[23] = Stability in rat liver microsomes assessed as compound remaining at 1 uM incubated for 30 mins by LC/MS/MS analysis; format: ADME, Microsome; settings: read-out: Stability
[24] = AUC in Sprague-Dawley rat at 5 mg/kg, po measured upto 24 hrs by LC/MS/MS analysis; format: ADME, organism-based; parameters: dose 5 mg/kg, time < 24 hr, route oral; settings: in vivo

In the case of `O=C(Nc1cc(F)c(F)c(F)c1)c1cc(Br)c(F)c(S(=O)(=O)N2CCC(O)CC2)c1`, the EC50 (Hepatitis B virus [1]) is reported as > 3300 nM and the CC50 at 65 h [2] is reported as > 100 µM.

For `O=C(Nc1cc(F)c(F)c(F)c1)c1cc(S(=O)(=O)N2CCC(O)CC2)ccc1O`, the EC50 (Hepatitis B virus [1]) was > 3300 nM and the CC50 at 65 h [2] was > 100 µM.

In the case of `O=C(Nc1cc(F)c(F)c(F)c1)c1cc(S(=O)(=O)N2CCC(O)CC2)cc2cc[nH]c12`, the EC50 (Hepatitis B virus [1]) is reported as > 3300 nM and the CC50 at 65 h [2] is reported as > 100 µM.

Work on `O=C(Nc1cc(F)c(F)c(F)c1)c1ccc(F)c(S(=O)(=O)N2CCC(O)CC2)c1` yielded an EC50 (Hepatitis B virus [1]) of 360 nM, an EC50 (Hepatitis B virus [3]) of 6.4 nM and a CC50 at 65 h [2] of 57.7 µM.

Work on `O=C(Nc1cc(F)c(F)c(F)c1)c1cccc(S(=O)(=O)N2CCC(O)CC2)c1` yielded an EC50 (Hepatitis B virus [1]) of 970 nM and a CC50 at 65 h [2] of 77.7 µM.

With `CSc1ccc(S(=O)(=O)N2CCC(O)CC2)cc1C(=O)Nc1cc(F)c(F)c(F)c1` the EC50 (Hepatitis B virus [1]) was 720 nM and the CC50 at 65 h [2] was > 100 µM.

In the case of `CNc1cc(F)c(S(=O)(=O)N2CCC(O)CC2)cc1C(=O)Nc1cc(F)c(F)c(F)c1`, the EC50 (Hepatitis B virus [1]) is reported as > 3300 nM and the CC50 at 65 h [2] is reported as > 100 µM.

For `COc1ccc(S(=O)(=O)N2CCC(O)CC2)cc1C(=O)Nc1cc(F)c(F)c(F)c1`, the EC50 (Hepatitis B virus [1]) was > 3300 nM and the CC50 at 65 h [2] was > 100 µM.

For `Nc1cc(C(=O)Nc2cc(F)c(F)c(F)c2)cc(S(=O)(=O)N2CCC(O)CC2)c1F`, the EC50 (Hepatitis B virus [1]) was 280 nM and the CC50 at 65 h [2] was 87.9 µM.

With `CN(C)c1ccc(S(=O)(=O)N2CCC(O)CC2)cc1C(=O)Nc1cc(F)c(F)c(F)c1` the EC50 (Hepatitis B virus [1]) was > 3300 nM and the CC50 at 65 h [2] was > 100 µM.

Work on `Nc1ccc(S(=O)(=O)N2CCC(O)CC2)cc1C(=O)Nc1cc(F)c(F)c(F)c1` yielded an EC50 (Hepatitis B virus [1]) of 240 nM and a CC50 at 65 h [2] of 76.9 µM.

With `Nc1cc(F)c(S(=O)(=O)N2CCC(O)CC2)cc1C(=O)Nc1cc(F)c(F)c(F)c1` the half-life at 1 µM [4] was 28.9 min, the half-life [5] was 206 min and the clearance [6] was 13.5 mL/min/kg. The IC50 (Cytochrome P450 1A2) was 81.1 µM, the AUC at 24 h [7] was 6420 ng·h/mL and the remaining at 4 h, 5 µM [8] was 90.1%. It also gave an AUC(0-t) at 24 h [9] of 5050 ng·h/mL, an IC50 [10] of 8.78 µM and an AUC(0-t) at 24 h [11] of 6300 ng·h/mL. For the same compound, the EC50 (Hepatitis B virus [1]) was 44 nM, the IC50 [12] was 10.9 µM and the Tmax [13] was 1.58 h. For the same compound, the IC50 (Cytochrome P450 3A4) was 27.8 µM, the fraction unbound at 4 h, 5 µM [14] was 0.0073 and the IC50 (Cytochrome P450 2C9) was 17 µM. The remaining at 4 h, 5 µM [15] was 71.9%, the half-life [16] was 400 min and the bioavailability [17] was 80.2%. The CC50 at 65 h [2] was 48.9 µM, the remaining at 4 h, 5 µM [18] was 98.7% and the Cmax [19] was 940 ng/mL. The IC50 (Cytochrome P450 2D6) was 32.6 µM, the IC50 (Cytochrome P450 2C19) was 23.1 µM and the “Ratio EC50” value (Hepatitis B virus [20]) was 9. For the same compound, the remaining at 0.5 h, 1 µM [21] was 50.2%, the Vd [22] was 2.95 L/kg and the remaining at 0.5 h, 1 µM [23] was 49.2%. It also gave an AUC at 24 h [24] of 5090 ng·h/mL.
